Several values for one entry are separate records, joined by “and”; a condition that tells them apart may be missing. Equal values may be shown once.
System: transcript levels in tissues (GH/IGF and glucagon/insulin axes, SSTR signalling)
Type: in vivo, cynomolgus monkeys
[1] = pituitary, 0.1 mg/animal/14 day, control 72
[2] = pituitary, 0.1 mg/animal/14 day, control 91
[3] = pituitary, 0.1 mg/animal/14 day, control 198
[4] = pituitary, 0.1 mg/animal/14 day, control 225

Substance: cyclo[4-(NH2—C2H4—NH—CO—O)Pro-Phg-DTrp-Lys-Tyr(4-Bzl)-Phe] [SOM230]
- ATPase, H+/K+ exchanging, beta polypeptide expression ↓ (fold change) (liver): polypeptide ↓ x2
- Adenylyl cyclase-associated protein expression ↑ (fold change) (liver): ↑ x1.5
- Arginine vasopressine receptor 2 expression ↑ (fold change) (liver): receptor 2 ↑ x2.5
- B lymphoid tyrosine kinase expression ↑ (fold change) (liver): ↑ x3.5
- BCL2-like 1 expression ↓ (fold change) (liver): ↓ x3.5
- Bone-derived GF expression ↑ (fold change) (liver): ↑ x3
- Bruton agammaglobulinemia a tyrosine kinase expression ↑ (fold change) (liver): ↑ x1.5
- Butyrate response factor 2 (EGF-response factor 2) expression ↑ (fold change) (liver): x2
- Ca++ channel, voltage-dependent, P/Q type, alpha 1A subunit expression ↓ (fold change) (liver): subunit ↓ x2.5
- Calcium/calmodulin-dependent protein kinase kinase 2, β expression ↑ (fold change) (liver): ↑ x3
- Calmodulin 2 (phosphorylase kinase, δ) expression ↑ (fold change) (liver): kinase, δ) ↑ x2
- Cdk 5, regulatory subunit 1 expression ↑ (fold change) (liver): subunit 1 ↑ x2.5
- Cdk like-2 expression ↓ (fold change) (liver): x2
- Cdki1A (p21/Cip1) expression ↑ (fold change) (liver): (p21/Cip1) ↑ x6
- Cdki 2D (p19, inhibits CDK4) expression ↓ (fold change) (liver): ↓ x2.5
- Corticosteroid binding globulin precursor expression ↑ (fold change) (liver): precursor ↑ x2
- DAG kinase, α (80 kD) expression ↑ (fold change) (liver): (80 kD) ↑ x3
- DAG kinase, δ (130 kD) expression ↑ (fold change) (liver): (130 kD) ↑ x1.5
- Death-associated protein 6 expression ↓ (fold change) (liver): ↓ x2.5
- Dopamine receptor D2 expression ↑ (fold change) (liver): receptor D2 ↑ x3.5
- Dopamine receptor D3 expression ↑ (fold change) (liver): receptor D3 ↑ x2
- EGF (β-urogastrone) expression ↓ (fold change) (liver): urogastrone) ↓ x2.5
- EGF-like repeats and discoidin I-like domains 3 expression ↓ (fold change) (liver): domains 3 ↓ x1.5
- EGFR (avian erythroblastic leukemia viral (v-erb-b) oncogene homolog) expression ↑ (fold change) (liver): homolog) ↑ x2
- FGFR 2 (bacteria-expressed kinase, keratinocyte growth factor receptor, craniofacial dysplasia) expression ↑ (fold change) (liver): dysplasia) ↑ x2
- Fas-activated serine/threonine kinase expression ↑ (fold change) (liver): kinase ↑ x1.5
- Fms-related tyrosine kinase 1(VEGF/vascular permeability factor receptor) expression ↓ (fold change) (liver): receptor) ↓ x1.5
- GABA (A) receptor, γ2 precursor expression ↑ (fold change) (liver): precursor ↑ x4
- GABA(A) receptor-associated protein expression ↑ (fold change) (liver): protein ↑ x1.5
- GCSF expression ↑ (fold change) (liver): GCSF ↑ x3.5
- GFR-bound protein 2 expression ↓ (fold change) (liver): protein 2 ↓ x2.5
- Gene expression (AvgDiff): GR (liver): 80
- Gene expression (AvgDiff): IGF-2 (liver): 269
- Gene expression (AvgDiff): IGFBP2 (liver): 4,476
- Gene expression (AvgDiff): Insulin promoter factor 1, homeodomain transcription factor (liver): 42
- Glucacon receptor expression ↑ (fold change) (liver): ↑ x5
- Glutamate receptor, metabotropic 4 expression ↑ (fold change) (liver): ↑ x1.5
- Glycosylphosphatidylinositol specific phospholipase D1 expression ↓ (fold change) (liver): ↓ x1.5
- Growth differentiation factor 1 expression ↑ (fold change) (liver): 1 ↑ x3
- IFN regulatory factor 5 expression ↑ (fold change) (liver): factor 5 ↑ x2.5
- IFN-induced leucine zipper protein expression ↑ (fold change) (liver): protein ↑ x1.5
- IFN-inducible RNA-dependent protein kinase expression ↑ (fold change) (liver): protein kinase ↑ x4
- IFN-related developmental regulator 2 expression ↓ (fold change) (liver): regulator 2 ↓ x1.5
- IFN-stimulated protein, 15 kDa expression ↓ (fold change) (liver): protein, 15 kDa ↓ x2
- IFNγ responsive transcript expression ↑ (fold change) (liver): transcript ↑ x1.5
- IGF-2 expression ↓ (fold change) (liver): IGF-2 ↓ x2.5
- IGFBP2 expression ↑ (fold change) (liver): IGFBP2 ↑ x2
- IL2 R, γ chain, precursor expression ↑ (fold change) (liver): precursor ↑ x2.5
- IP 5-phosphatase expression ↑ (fold change) (liver): ↑ x2
- Insulin promoter factor 1, homeodomain transcription factor expression ↓ (fold change) (liver): ↓ x1.5
- Natriuretic peptide receptor A/guanylate cyclase A (atrionatriuretic peptide receptor A) expression ↑ (fold change) (liver): ↑ x6
- Nck, Ash and PLC γ binding protein NAP4 expression ↑ (fold change) (liver): NAP4 ↑ x3.5
- PDGF, α polypeptide expression ↑ (fold change) (liver): polypeptide ↑ x1.5
- PDGFR, α polypeptide expression ↑ (fold change) (liver): polypeptide ↑ x2
- PI transfer protein expression ↑ (fold change) (liver): ↑ x3.5
- PI transfer protein, β expression ↓ (fold change) (liver): β ↓ x1.5
- PKC substrate 80K-H expression ↑ (fold change) (liver): 80K-H ↑ x1.5
- PKC, ι expression ↓ (fold change) (liver): PKC, ι ↓ x1.5
- PLA2, group IIA (platelets, synovial fluid) expression ↑ (fold change) (liver): fluid) ↑ x5.5
- PLC, γ1 (formerly subtype 148) expression ↑ (fold change) (liver): subtype 148) ↑ x2
- Rb 1 (including osteosarcoma) expression ↓ (fold change) (liver): ↓ x2
- Rb binding protein expression ↑ (fold change) (liver): ↑ x2.5
- Rb-like 2 (p130) expression ↑ (fold change) (liver): x3
- Receptor (calcitonin) activity modifying protein 1 precursor expression ↑ (fold change) (liver): precursor ↑ x1.5
- Solute carrier family 9 (sodium/hydrogen exchanger), isoform 3 regulatory factor 1 expression ↑ (fold change) (liver): ↑ x11.5
- Solute carrier family 11 (Na+/phosphate symporters), member 1 expression ↑ (fold change) (liver): member 1 ↑ x2.5
- TGF, β1 expression ↓ (fold change) (liver): TGF, β1 ↓ x1.5
- TGFβ activated kinase-binding protein 1 expression ↑ (fold change) (liver): protein 1 ↑ x2.5
- TGFβR III (betaglycan, 300kδ) expression ↓ (fold change) (liver): ↓ x2
- THR interacting protein 15 expression ↑ (fold change) (liver): protein 15 ↑ x1.5
- THR sulfo transferase expression ↑ (fold change) (liver): transferase ↑ x2.5
- TNF (ligand) superfamily, member 10 expression ↑ (fold change) (liver): member 10 ↑ x1.5
- TNF-α converting enzyme expression ↓ (fold change) (liver): enzyme ↓ x2
- δ sleep inducing peptide, immunoreactor expression ↑ (fold change) (liver): ↑ x2.5
- PP 1, regulatory (inhibitor) subunit 5 AvgDiff (pituitary, 0.1 mg/animal/14 day, control 20): 75
- SSTR3 AvgDiff (pituitary, 0.1 mg/animal/14 day, control 22): 57
- Cell division cycle 25B AvgDiff (pituitary, 0.1 mg/animal/14 day, control 40): 162
- GLUR 2, precursor AvgDiff (pituitary, 0.1 mg/animal/14 day, control 42): 59
- BCL2-antagonist of cell death AvgDiff (pituitary, 0.1 mg/animal/14 day, control 44): 69
- PTP, receptor type, T AvgDiff (pituitary, 0.1 mg/animal/14 day, control 58): 101
- Putative Ca++ transporting ATPase AvgDiff (pituitary, 0.1 mg/animal/14 day, control 61): 101
- K+ voltage-gated channel, Shab-related subfamily, member 1 AvgDiff (pituitary, 0.1 mg/animal/14 day, control 66): 22
- PI-3-kinase, catalytic, α polypeptide AvgDiff [1]: 21
- RAB 5C, member RAS oncogene family AvgDiff [1]: 162
- Cdk inhibitor 2C (p18, inhibits CDK4) AvgDiff (pituitary, 0.1 mg/animal/14 day, control 81): 184
- ATPase, Na+/K+ transporting, α 2 (+) polypeptide AvgDiff (pituitary, 0.1 mg/animal/14 day, control 86): 184
- PI-3-kinase, catalytic, δ polypeptide AvgDiff [2]: 34
- S-phase response (cyclin-related) AvgDiff [2]: 129
- PLC, γ 1 (formerly subtype 148) AvgDiff (pituitary, 0.1 mg/animal/14 day, control 111): 40
- SHB adaptor protein (a Src homology 2 protein) AvgDiff (pituitary, 0.1 mg/animal/14 day, control 112): 38
- PI transfer protein, β AvgDiff (pituitary, 0.1 mg/animal/14 day, control 125): 42
- ATPase, H+/K+ exchanging, α polypeptide AvgDiff (pituitary, 0.1 mg/animal/14 day, control 128): 20
- Phosphatase and tensin homolog (mutated in multiple advanced cancers 1) AvgDiff (pituitary, 0.1 mg/animal/14 day, control 129): 36
- K+ channel, subfamily K, member 3 (TASK) AvgDiff (pituitary, 0.1 mg/animal/14 day, control 132): 26
- Rab geranylgeranyltransferase, α subunit AvgDiff (pituitary, 0.1 mg/animal/14 day, control 164): 104
- MAPKKK5 AvgDiff (pituitary, 0.1 mg/animal/14 day, control 171): 278
- Neuroblastoma-amplified protein AvgDiff (pituitary, 0.1 mg/animal/14 day, control 178): 237
- Cyclin D3 AvgDiff (pituitary, 0.1 mg/animal/14 day, control 187): 338
- Cdk inhibitor 2D (p19, inhibits CDK4) AvgDiff [3]: 99
- Cyclin F AvgDiff [3]: 74
- BCL2-associated athanogene AvgDiff (pituitary, 0.1 mg/animal/14 day, control 216): 318
- Core-binding factor, runt domain, α subunit 2; translocated to, 1; cyclin D-related AvgDiff [4]: 491
- Forkhead box H1 AvgDiff [4]: 117
- Rab geranygeranyltransferase, β subunit AvgDiff (pituitary, 0.1 mg/animal/14 day, control 230): 284
- Bax gamma AvgDiff (pituitary, 0.1 mg/animal/14 day, control 258): 326
- ATPase, Na+/K+ transporting, β 3 polypeptide AvgDiff (pituitary, 0.1 mg/animal/14 day, control 292): 610
- IP-4-phosphatase, type 1, isoform b AvgDiff (pituitary, 0.1 mg/animal/14 day, control 296): 177
- BCL2/adenovirus E1B 19kD-interacting protein 3 AvgDiff (pituitary, 0.1 mg/animal/14 day, control 342): 458
- Dual specificity phosphatase 8 AvgDiff (pituitary, 0.1 mg/animal/14 day, control 493): 170
- Forkhead box O3A AvgDiff (pituitary, 0.1 mg/animal/14 day, control 497): 257
- Programmed cell death 6 AvgDiff (pituitary, 0.1 mg/animal/14 day, control 504): 635
- PKC inhibitor AvgDiff (pituitary, 0.1 mg/animal/14 day, control 2,351): 3,333 and 3,332
- ATPase, Na+/K+ transporting, β1 polypeptide expression ↑ (fold change) (spleen): polypeptide ↑ x2.5
- Adrenergic, α-2C-, receptor expression ↓ (fold change) (spleen): ↓ x2
- Arginine vasopressine receptor 1B expression ↑ (fold change) (spleen): receptor 1B ↑ x2
- Bcl-2 binding component 3 expression ↑ (fold change) (spleen): ↑ x2.5
- Ca++ channel, voltage-dependent, α2/δ subunit 1 expression ↑ (fold change) (spleen): α2/δ subunit 1 ↑ x2
- Ca++ channel, voltage-dependent, α2/δ subunit 2 expression ↑ (fold change) (spleen): ↑ x1.5
